Assay results as given in PMC6445242, “Novel tetrazole and cyanamide derivatives as inhibitors of cyclooxygenase-2 enzyme: design, synthesis, anti-inflammatory evaluation, ulcerogenic liability and docking study” (Journal of Enzyme Inhibition and Medicinal Chemistry, 2017).
Entries after “also recorded” stand apart in the source; their conditions may differ.

Experiments:
[1] = tested on: carrageenan-induced paw oedema; assay: Carrageenan-induced rat paw oedema; format: in vivo; conditions: 50 mg/kg oral; for %Inhibition of paw oedema, 1h / Paw thickness change mean ± SEM, 1h: 1 h after carrageenan; for Paw thickness change mean ± SEM, 1h / Paw thickness change mean ± SEM, 3h / Paw thickness change mean ± SEM, 5h: n = 4; for %Inhibition of paw oedema, 3h / Paw thickness change mean ± SEM, 3h: 3 h after carrageenan; for %Inhibition of paw oedema, 5h / Paw thickness change mean ± SEM, 5h: 5 h after carrageenan
Description: Female wister rats (150-200 g) were used in this study. The animals were kept at controlled conditions (temperature 23 ± 2 °C, humidity 60 ± 10%) and a 12/12-h light/dark cycle with access to food and water. All procedures relating to animal care and treatments were performed according to protocols approved by the Research Ethical Committee of Faculty of Pharmacy Beni-Suef University (2014-Beni-Suef, Egypt). The anti-inflammatory activity of the synthesised compounds was determined in vivo by […]-induced paw oedema method in rats[49]. Rats were divided into 21 groups of four animals each, and then, they were fasted overnight with free access to water before the experiment. Before any drug administration, thickness of the left hind paw of each rat was measured in millimetres. Group 1 served as a control and administered the vehicle (2.5% Tween 80).

[2] = tested on: gastric mucosa (ulcer number, ulcer index); assay: Ulcerogenic liability; format: in vivo, rat; conditions: 50 mg/kg oral, three successive days, rats; for Ulcer index: sum of % incidence, average severity and average number of ulcers
Description: Female wister rats (150–200 g) were used in this study. The animals were kept at controlled conditions (temperature 23 ± 2 °C, humidity 60 ± 10%) and a 12/12-h light/dark cycle with access to food and water. All procedures relating to animal care and treatments were performed according to protocols approved by the Research Ethical Committee of Faculty of Pharmacy Beni-Suef University (2014-Beni-Suef, Egypt).
[…]. Forty-eight rats were used in this study, divided into 12 groups and fasted for 18 h before drug administration. The control group received the vehicle (2.5% Tween 80). Other groups received test compounds, celecoxib or indomethacin at a dose of 50 mg/kg, then animals were fed after 2 h. Rats were given the specified dose orally for three successive days. Rats were sacrificed after 2 h of the last dose, then the stomach of each rat was removed and opened along the greater curvature for determination of the ulcer number and ulcer index according to the reported method.

rat's gastric tissue = assay: Histopathological investigation of stomach; format: in vivo; conditions: haematoxylin and eosin, after ulcerogenic liability dosing
Description: Whole rats stomach were collected, selected stomach samples from each rat were fixed in 10% neutral buffered formalin for 48 h and routinely processed for paraffin embedding. 5 μm Thickness sections were obtained then stained with haematoxylin and eosin for histopathological evaluation.

ovine COX-1 = target: T1, ovine COX-1 (Ovis aries, UniProt P05979); assay: In vitro COX-1 inhibition assay (EIA kit, Cayman)
T1 sequence (P05979 25-600): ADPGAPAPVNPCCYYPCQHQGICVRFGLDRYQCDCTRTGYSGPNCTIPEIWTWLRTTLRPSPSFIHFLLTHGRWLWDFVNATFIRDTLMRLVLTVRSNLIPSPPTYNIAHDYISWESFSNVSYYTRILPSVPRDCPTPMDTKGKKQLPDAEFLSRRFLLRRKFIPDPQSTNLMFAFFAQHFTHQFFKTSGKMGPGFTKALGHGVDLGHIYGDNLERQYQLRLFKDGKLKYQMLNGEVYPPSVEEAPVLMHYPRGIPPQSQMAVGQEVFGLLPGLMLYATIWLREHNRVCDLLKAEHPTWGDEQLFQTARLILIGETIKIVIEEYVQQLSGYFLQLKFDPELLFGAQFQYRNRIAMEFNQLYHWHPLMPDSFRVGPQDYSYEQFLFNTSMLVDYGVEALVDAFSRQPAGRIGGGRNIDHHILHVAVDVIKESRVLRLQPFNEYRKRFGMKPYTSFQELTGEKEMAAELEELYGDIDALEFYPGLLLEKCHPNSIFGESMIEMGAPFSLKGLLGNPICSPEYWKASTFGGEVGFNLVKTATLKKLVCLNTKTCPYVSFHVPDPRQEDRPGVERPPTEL
Description: (§1) The peroxidase activity of cyclooxygenase enzyme isoforms was measured using the COX activity assay kit. The ability of the test compounds to inhibit both ovine COX-1 and COX-2 enzymes was explored in vitro using a colorimetric enzyme immunoassay (EIA) kit. The appearance of oxidised N,N,N′,N′-tetramethyl-p-phenylenediamine (TMPD) was monitored at 590 nm. The kit includes isozyme-specific inhibitors for distinguishing COX-2 activity from that of COX-1.

ovine COX-2 = target: T2, ovine COX-2 (Ovis aries, UniProt P79208); assay: In vitro COX-2 inhibition assay (EIA kit, Cayman); conditions: for IC50: IC50 COX-2, ovine COX-2, mean of two determinations; for SI, COX-2 selectivity index (COX-1 IC50/COX-2 IC50): ovine enzymes
T2 sequence (P79208 17-603): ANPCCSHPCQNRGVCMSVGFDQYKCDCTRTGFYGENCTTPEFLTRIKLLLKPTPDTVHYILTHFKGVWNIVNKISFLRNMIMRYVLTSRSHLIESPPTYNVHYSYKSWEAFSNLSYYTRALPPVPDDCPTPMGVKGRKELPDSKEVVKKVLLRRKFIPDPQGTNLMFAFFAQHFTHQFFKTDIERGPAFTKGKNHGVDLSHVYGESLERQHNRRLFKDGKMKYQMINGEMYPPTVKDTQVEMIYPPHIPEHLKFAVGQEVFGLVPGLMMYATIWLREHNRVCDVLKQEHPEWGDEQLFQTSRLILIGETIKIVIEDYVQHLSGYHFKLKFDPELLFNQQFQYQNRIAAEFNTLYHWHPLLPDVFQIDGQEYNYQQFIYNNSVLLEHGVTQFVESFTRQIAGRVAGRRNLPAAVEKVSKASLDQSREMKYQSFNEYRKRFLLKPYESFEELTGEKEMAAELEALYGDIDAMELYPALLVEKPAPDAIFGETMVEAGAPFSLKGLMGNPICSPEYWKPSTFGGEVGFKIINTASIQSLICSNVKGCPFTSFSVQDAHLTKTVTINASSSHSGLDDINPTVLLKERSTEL
Description: as §1

[3] = tested on: latency time of pain response; assay: Hot plate method (central analgesic activity); format: in vivo; conditions: 10 mg/kg oral, mice, hot plate 55 °C, after 60 min
Description: This method was used to evaluate the central analgesic activity by determination of the delay in the latency time of pain response. […] After 60 min, the animals were placed on a hot plate maintained at 55 ± 0.5 °C. The reaction time was recorded as the time taken by the animals to […] or lick the fore or hind paw or jump off the plate.

melting point	IC50 (ovine COX-1)	IC50 (ovine COX-2)	SI, COX-2 selectivity index (COX-1 IC50/COX-2 IC50) (ovine COX-2)	Compound	%Inhibition of paw oedema, 1h [1]	Paw thickness change mean ± SEM, 1h [1]	%Inhibition of paw oedema, 3h [1]	Paw thickness change mean ± SEM, 3h [1]	%Inhibition of paw oedema, 5h [1]	Paw thickness change mean ± SEM, 5h [1]	Average number of ulcers [2]	Ulcer index [2]	Histopathological findings in stomach (rat's gastric tissue)	Central analgesic activity (delay in latency time) [3]
				Cc1ccc(-c2cc(C(F)(F)F)nn2-c2ccc(S(N)(=O)=O)cc2)cc1 [Celecoxib, reference compound]	76%	0.38 ± 0.03 mm	66%	0.58 ± 0.11 mm	19%	1.08 ± 0.13 mm	0.50	0.50	thickening and hyalinosis of basement membrane with lymphocytic infiltration and minimal congested submucosal blood capillaries	
230 to 232 °C	16 µM	0.38 µM	42.02	COc1ccc(-c2cc(-c3ccc(-n4cnnn4)cc3)nc(N)c2C#N)cc1OC [Compound 4c, 6-[4-(1H-Tetrazol-1-yl)phenyl]-2-amino-4-(3,4-dimethoxyphenyl)nicotinonitrile]		0.83 ± 0.15 mm	58%	0.70 ± 0.11 mm	8%	1.23 ± 0.11 mm	1.75	1.75	mucous degeneration in gastric glandular epithelium reach to coagulative necrosis	
281 to 283 °C	7.09 µM	0.18 µM	39.38	N#Cc1c(-c2ccccc2)cc(-c2ccc(-n3cnnn3)cc2)[nH]c1=O [Compound 5a, 6-[4-(1H-Tetrazol-1-yl)phenyl]-2-oxo-4-phenyl-1,2-dihydropyridine-3-carbonitrile]	61%	0.61 ± 0.08 mm	54%	0.63 ± 0.18 mm	61%	0.53 ± 0.09 mm	0.75	1.25	all layers of stomach were more or less normal; also recorded: most preferable compound with minimal drug effect on tissue	
> 300 °C	6.45 µM		46.07	COc1cc(-c2cc(-c3ccc(-n4cnnn4)cc3)[nH]c(=O)c2C#N)cc(OC)c1OC [Compound 5f, 6-[4-(1H-Tetrazol-1-yl)phenyl]-4-(3,4,5-trimethoxyphenyl)-2-oxo-1,2-dihydropyridine-3-carbonitrile]	79%	0.33 ± 0.09 mm	36%	1.08 ± 0.10 mm	30%	0.93 ± 0.15 mm	1.25	1.25	affect only muscular layer of the stomach by causing corrugation and hyalinosis in some muscle bundles and reach to coagulative necrosis	potent analgesic activities
	8.67 µM	0.32 µM		COc1ccc(C2CC(c3ccc(-n4cnnn4)cc3)=NN2c2ccc(S(C)(=O)=O)cc2)cc1OC (centres unmarked) [Compound 8a, 1-{4-[5-(3,4-Dimethoxyphenyl)-1-(4-(methanesulphonyl)phenyl]-4,5-dihydro-1H-pyrazol-3-yl)phenyl}-1H-tetrazole]	71–75%		52%	0.89 ± 0.19 mm	15%	1.13 ± 0.11 mm	1.50		some areas of glandular epithelium were more or less normal associated with sever congested blood capillaries and eosinophilic infiltrations in submucosa	potent analgesic activities
241 to 243 °C	3.87 µM		35.18	COc1cc(C2CC(c3ccc(-n4cnnn4)cc3)=NN2c2ccc(S(C)(=O)=O)cc2)cc(OC)c1OC (centres unmarked) [Compound 8b]	71%	0.45 ± 0.10 mm	48%	0.88 ± 0.09 mm	38%	0.83 ± 0.17 mm	0.75	0.75	massive destruction of localised area of epithelium with formation of an erosion associated with hyalinosis and necrosis of muscular layer	potent analgesic activities
	7.37 µM	0.21 µM		COc1cc(C2CC(c3ccc(-n4cnnn4)cc3)=NN2c2ccc(S(N)(=O)=O)cc2)cc(OC)c1OC (centres unmarked) [Compound 9b, 4-{3-[4-(1H-Tetrazol-1-yl)phenyl]-5-(3,4,5-trimethoxyphenyl)-4,5-dihydro-1H-pyrazol-1-yl)benzenesulphonamide]	75%	0.40 ± 0.11 mm	40%	1.00 ± 0.16 mm	12%	1.18 ± 0.20 mm	0.25		Mucous degeneration of glandular epithelium of gastric mucosa, and lymphocytic infiltration and mild congestion in submucosa	
